Test results taken from patent publication US20180128830A1, “DETECTION OF HUMAN CYTOMEGALOVIRUS IN BREAST CANCER” (priority 2015, published 2018).
Values joined by “and” are separate entries in the source; they are usually repeats but may differ in a detail not shown here. Identical values can stand only once.

Tested on: MDA-MB-231 cells
Test: Transcriptional profiling, Human Tumor Metastasis RT2 Profiler PCR Array
Assay type: cell-based
Conditions: 100 ng/mL, 5 hrs
Experimental: RNA was harvested from 10×10^6 MDA-MB-231 cells that were mock treated or treated with 100 ng/mL cmvIL-10 or hIL-10 for 5 hrs using the RNeasy Midi Kit and RNAse-Free DNase set (Qiagen, Valencia, Calif.). From the isolated RNA, cDNA was prepared using the RT^2 First Strand Kit (SA Biosciences, Frederick, Md.) and subsequently loaded into a 96-well breast cancer metastasis profiler PCR array (PAHS-028ZD) with system RT^2 SYBR Green Mastermix (SA Biosciences). The plates were run using the CFX96 Real-Time system cycler (BioRad, Hercules, Calif.) with the following amplification program: 95° C. for 10 min, 95° C. for […] with a slow ramp rate for 1.0 c/sec and 60° C. for 1 min. The data from three biological replicates for each treatment was analyzed by the ΔΔCT method according to manufacturer's instructions using the RT^2 profiler PCR array data analysis program located on the SABiosciences web portal and is reported as fold change relative to control.

Substance: hIL-10: purified recombinant human interleukin-10 from R&D Systems
- Fold Change vs. Mock, ACTB (ACTB mRNA): 1.3287 fold
- Fold Change vs. Mock, APC (APC mRNA): 1.0052 fold
- Fold Change vs. Mock, B2M (B2M mRNA): 0.9897 fold
- Fold Change vs. Mock, BRMS1 (BRMS1 mRNA): 1.1154 fold
- Fold Change vs. Mock, CCL7 (CCL7 mRNA): 0.9314 fold
- Fold Change vs. Mock, CD44 (CD44 mRNA): 1.3402 fold
- Fold Change vs. Mock, CD82 (CD82 mRNA): 1.1019 fold
- Fold Change vs. Mock, CDH1 (CDH1 mRNA): 0.7618 fold
- Fold Change vs. Mock, CDH6 (CDH6 mRNA): 0.9314 fold
- Fold Change vs. Mock, CDH11 (CDH11 mRNA): 1.0425 fold
- Fold Change vs. Mock, CDKN2A (CDKN2A mRNA): 0.9314 fold
- Fold Change vs. Mock, CHD4 (CHD4 mRNA): 1.1115 fold
- Fold Change vs. Mock, COL4A2 (COL4A2 mRNA): 1.51 fold and 1.5131 fold
- Fold Change vs. Mock, CST7 (CST7 mRNA): 0.8858 fold
- Fold Change vs. Mock, CTBP1 (CTBP1 mRNA): 0.9576 fold
- Fold Change vs. Mock, CTNNA1 (CTNNA1 mRNA): 0.9428 fold
- Fold Change vs. Mock, CTSK (CTSK mRNA): 0.8482 fold
- Fold Change vs. Mock, CTSL1 (CTSL1 mRNA): 0.8981 fold
- Fold Change vs. Mock, CXCL12 (CXCL12 mRNA): 0.9314 fold
- Fold Change vs. Mock, CXCR4 (CXCR4 mRNA): 0.8751 fold
- Fold Change vs. Mock, DENR (DENR mRNA): 0.9626 fold
- Fold Change vs. Mock, EPHB2 (EPHB2 mRNA): 0.9028 fold
- Fold Change vs. Mock, ETV4 (ETV4 mRNA): 1.0175 fold
- Fold Change vs. Mock, EWSR1 (EWSR1 mRNA): 1.3104 fold
- Fold Change vs. Mock, FAT1 (FAT1 mRNA): 1.4414 fold
- Fold Change vs. Mock, FGFR4 (FGFR4 mRNA): 0.9693 fold
- Fold Change vs. Mock, FLT4 (FLT4 mRNA): 1.0317 fold
- Fold Change vs. Mock, FN1 (FN1 mRNA): 1.2100 fold
- Fold Change vs. Mock, FXYD5 (FXYD5 mRNA): 1.0479 fold
- Fold Change vs. Mock, GAPDH (GAPDH mRNA): 1.2121 fold
- Fold Change vs. Mock, GNRH1 (GNRH1 mRNA): 1.1647 fold
- Fold Change vs. Mock, HGF (HGF mRNA): 0.9314 fold
- Fold Change vs. Mock, HPRT1 (HPRT1 mRNA): 1.3827 fold
- Fold Change vs. Mock, HPSE (HPSE mRNA): 0.8645 fold
- Fold Change vs. Mock, HRAS (HRAS mRNA): 1.0625 fold
- Fold Change vs. Mock, HTATIP2 (HTATIP2 mRNA): 0.9138 fold
- Fold Change vs. Mock, IGF1 (IGF1 mRNA): 0.9794 fold
- Fold Change vs. Mock, IL1B (IL1B mRNA): 0.6771 fold
- Fold Change vs. Mock, IL18 (IL18 mRNA): 0.7526 fold
- Fold Change vs. Mock, ITGA7 (ITGA7 mRNA): 0.8796 fold
- Fold Change vs. Mock, ITGB3 (ITGB3 mRNA): 1.0317 fold
- Fold Change vs. Mock, KISS1R (KISS1R mRNA): 0.9314 fold
- Fold Change vs. Mock, KISS1 (KISS1 mRNA): 1.5856 fold
- Fold Change vs. Mock, KRAS (KRAS mRNA): 0.9931 fold
- Fold Change vs. Mock, MCAM (MCAM mRNA): 1.0353 fold
- Fold Change vs. Mock, MDM2 (MDM2 mRNA): 0.9461 fold
- Fold Change vs. Mock, MET (MET mRNA): 1.1173 fold
- Fold Change vs. Mock, METAP2 (METAP2 mRNA): 1.0736 fold
- Fold Change vs. Mock, MGAT5 (MGAT5 mRNA): 1.3590 fold
- Fold Change vs. Mock, MMP2 (MMP2 mRNA): 1.5157 fold
- Fold Change vs. Mock, MMP3 (MMP3 mRNA): 0.8080 fold
- Fold Change vs. Mock, MMP7 (MMP7 mRNA): 0.8123 fold
- Fold Change vs. Mock, MMP9 (MMP9 mRNA): 0.9347 fold
- Fold Change vs. Mock, MMP10 (MMP10 mRNA): 0.6866 fold
- Fold Change vs. Mock, MMP11 (MMP11 mRNA): 1.0867 fold
- Fold Change vs. Mock, MMP13 (MMP13 mRNA): 0.9777 fold
- Fold Change vs. Mock, MTA1 (MTA1 mRNA): 0.9395 fold
- Fold Change vs. Mock, MTSS1 (MTSS1 mRNA): 1.2397 fold
- Fold Change vs. Mock, MYC (MYC mRNA): 0.7423 fold
- Fold Change vs. Mock, MYCL1 (MYCL1 mRNA): 1.0644 fold
- Fold Change vs. Mock, NF2 (NF2 mRNA): 1.3496 fold
- Fold Change vs. Mock, NME1 (NME1 mRNA): 1.1000 fold
- Fold Change vs. Mock, NME4 (NME4 mRNA): 0.9965 fold
- Fold Change vs. Mock, NR4A3 (NR4A3 mRNA): 0.8151 fold
- Fold Change vs. Mock, PLAUR (PLAUR (uPAR) mRNA): 1.87 fold and 1.8628 fold
- Fold Change vs. Mock, PNN (PNN mRNA): 1.2901 fold
- Fold Change vs. Mock, PTEN (PTEN mRNA): 0.8645 fold
- Fold Change vs. Mock, RB1 (RB1 mRNA): 0.9298 fold
- Fold Change vs. Mock, RORB (RORB mRNA): 0.8827 fold
- Fold Change vs. Mock, RPLP0 (RPLP0 mRNA): 1.0000 fold
- Fold Change vs. Mock, RPSA (RPSA mRNA): 1.0886 fold
- Fold Change vs. Mock, SERPINE1 (SERPINE1 (PAI-1) mRNA): 3.12 fold and 3.0262 fold
- Fold Change vs. Mock, SET (SET mRNA): 0.9234 fold
- Fold Change vs. Mock, SMAD2 (SMAD2 mRNA): 0.7859 fold
- Fold Change vs. Mock, SMAD4 (SMAD4 mRNA): 0.8279 fold
- Fold Change vs. Mock, SRC (SRC mRNA): 0.9760 fold
- Fold Change vs. Mock, SSTR2 (SSTR2 mRNA): 0.7120 fold
- Fold Change vs. Mock, SYK (SYK mRNA): 0.9314 fold
- Fold Change vs. Mock, TCF20 (TCF20 mRNA): 0.9676 fold
- Fold Change vs. Mock, TGEB1 (TGEB1 (Transforming growth factor, beta 1) mRNA): 0.9931 fold
- Fold Change vs. Mock, TIMP2 (TIMP2 mRNA): 0.8601 fold
- Fold Change vs. Mock, TIMP3 (TIMP3 mRNA): 0.7631 fold
- Fold Change vs. Mock, TIMP4 (TIMP4 mRNA): 0.9122 fold
- Fold Change vs. Mock, TNFSF10 (TNFSF10 mRNA): 0.7955 fold
- Fold Change vs. Mock, TP53 (TP53 mRNA): 0.8873 fold
- Fold Change vs. Mock, TRPM1 (TRPM1 mRNA): 0.9314 fold
- Fold Change vs. Mock, TSHR (TSHR mRNA): 0.9314 fold
- Fold Change vs. Mock, VEGFA (VEGFA mRNA): 0.5987 fold
- VEGFA fold change expressed as negative fold (down-regulation) (VEGFA mRNA): 1.67 fold
